Assay type in all cases: biochemical
For one assay, the target named is T1, human SHP2-FL P491S (Homo sapiens, UniProt Q06124, P491S).
T1 sequence (Q06124 1-593 P491S): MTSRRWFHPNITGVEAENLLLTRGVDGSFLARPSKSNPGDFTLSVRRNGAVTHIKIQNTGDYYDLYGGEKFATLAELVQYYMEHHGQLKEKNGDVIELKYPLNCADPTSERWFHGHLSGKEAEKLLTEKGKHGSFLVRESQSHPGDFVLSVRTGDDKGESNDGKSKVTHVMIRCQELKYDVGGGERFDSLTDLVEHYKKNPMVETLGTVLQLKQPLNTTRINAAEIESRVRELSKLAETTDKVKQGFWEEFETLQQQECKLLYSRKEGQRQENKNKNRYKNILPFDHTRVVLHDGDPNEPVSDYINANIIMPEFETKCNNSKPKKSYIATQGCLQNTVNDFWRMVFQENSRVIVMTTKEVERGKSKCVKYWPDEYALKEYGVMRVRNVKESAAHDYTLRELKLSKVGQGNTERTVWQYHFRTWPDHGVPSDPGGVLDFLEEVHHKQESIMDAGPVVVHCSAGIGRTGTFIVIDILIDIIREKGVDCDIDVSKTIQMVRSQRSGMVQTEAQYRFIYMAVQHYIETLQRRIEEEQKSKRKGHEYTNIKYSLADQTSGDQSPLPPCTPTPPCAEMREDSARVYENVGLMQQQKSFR
As to the kind of experiment: SHP2 allosteric inhibition assay (DiFMUP), P491S. The method, then: (§1) Full-length SHP2 is allosterically activated through binding of bis-tyrosyl-phorphorylated peptides to its Src Homology 2 (SH2) domains. The latter activation step leads to the release of the auto-inhibitory interface of SHP2, which in turn renders the SHP2 protein tyrosine phosphatase (PTP) active and available for substrate recognition and reaction catalysis. The catalytic activity of SHP2 was monitored using the surrogate substrate DiFMUP in a prompt fluorescence assay format.
(§2) […] […] 50 μl stop solution (0.1 mM sodium pervanadate) was added to each well, the plate was shaken briefly to mix, and read in endpoint mode on a SpectraMax M5 plate reader (Molecular Devices) using excitation and emission wavelengths of 340 nm and 450 nm. Data was imported into GraphPad Prism. Plots of fluorescence intensity vs. log Molar [compound] were created and modeled with a 3-parameter sigmoidal concentration response equation in order to estimate IC50.
(§3) Reactions were then allowed to proceed for 30 minutes and stopped by the addition of a phosphatase inhibitor, sodium pervanadate. De-phosphorylation of DiFMUP results in production of a fluorescent product. Product fluorescence was determined and plotted as a function of compound concentration in order to determine the IC50 for each compound on each mutant using a four parameter sigmoidal dose response function in Prism (GraphPad).
(§4) NsCs mimics the role of the cytosolic domain of a protein tyrosine kinase in this model system.

The next assay concerns the target T2, human SHP2-FL S502P (Homo sapiens, UniProt Q06124, S502P).
T2 sequence (Q06124 1-593 S502P): T1 sequence (Q06124 1-593 P491S) with S491P, S502P
As to the kind of experiment: SHP2 allosteric inhibition assay (DiFMUP), S502P. The procedure:
as §1, §2, §3, §4

The target of a further assay is T3, SHP2 T253M/Q257L (Homo sapiens, UniProt Q06124, Q257L/T253M).
T3 sequence (Q06124 1-593 T253M/Q257L): T1 sequence (Q06124 1-593 P491S) with T253M, Q257L, S491P
As to the kind of experiment: SHP2 allosteric inhibition assay (DiFMUP), T253M/Q257L. The arrangement: expressed in transfected cells. To be noted: Variant T253M/Q257L.

Substitutions are numbered along the chain they refer to. Values joined by “and” are separate entries in the source; they are usually repeats but may differ in a detail not shown here. Identical values can stand only once. Like-named read-outs stand apart in the source and are kept apart here.

Regarding `Nc1nc(N2CCC3(CCC[C@H]3N)CC2)cnc1Sc1ccnc(Cl)c1Cl` [Compound 1], the IC50 was > 10000 nM and 10600 nM and 7670 nM against human SHP2-FL P491S (IC50 (nM), SHP2 P491S 0.5 μM NsCs peptide (Activated), human SHP2-FL P491S, 0.5 μM NsCs peptide (activated)); 258 nM and 274 nM and 253 nM and 282 nM at human SHP2-FL P491S (human SHP2-FL P491S alone, no peptide (non-activated), read-out: IC50 (nM), SHP2 P491S No Peptide Control (Non-Activated)); 257 nM and 275 nM and 251 nM and 282 nM at human SHP2-FL P491S (human SHP2-FL P491S alone, no peptide (non-activated), read-out: pIC50, SHP2 P491S No Peptide Control (Non-Activated) (converted)); > 10000 nM and 10700 nM and 7590 nM against human SHP2-FL P491S (pIC50, SHP2 P491S 0.5 μM NsCs peptide (Activated), human SHP2-FL P491S, 0.5 μM NsCs peptide (activated)); above 10000 nM at human SHP2-FL S502P (IC50 (nM), SHP2 S502P 0.5 μM NsCs peptide (Activated), human SHP2-FL S502P in presence of 0.5 μM NsCs peptide (activated)); 237 nM and 227 nM and 221 nM and 308 nM at human SHP2-FL S502P (human SHP2-FL S502P alone, no peptide (non-activated), read-out: IC50 (nM), SHP2 S502P No Peptide Control (Non-Activated)). For the same molecule, the IC50 at human SHP2-FL S502P (human SHP2-FL S502P alone, no peptide (non-activated), read-out: pIC50, SHP2 S502P No Peptide Control (Non-Activated) (converted)) was 234 nM and 229 nM and 219 nM and 309 nM; at human SHP2-FL S502P (pIC50, SHP2 S502P 0.5 μM NsCs peptide (Activated), human SHP2-FL S502P in presence of 0.5 μM NsCs peptide (activated)) it was above 10000 nM.
Take `Cc1nc(N2CCC3(CC2)CO[C@@H](C)[C@H]3N)c(CO)nc1-c1cccc(Cl)c1Cl` [Compound B]: the Biochemical sensitivity result on human SHP2-FL P491S (Variant P491S), at human SHP2-FL S502P (Variant S502P) and at SHP2 T253M/Q257L was “no (Sensitive if IC50 < 2000 nM)” each time.

The values are drawn from patent US20210154190A1, “SHP2 INHIBITOR COMPOSITIONS AND METHODS FOR TREATING CANCER” (Revolution Medicines, Inc., priority 2018, published 2021).
